Measurements taken from patent US8735421B2, “Imidazoquinolinyl sulfonamides” (3M Innovative Properties Company, priority 2003, dated 2014).
Counter-ions that a name gives are not always drawn.

Row | SMILES | melting point [°C]
1 | CCOCc1nc2c(N)nc3ccccc3c2n1CC(C)(C)CS(=O)(=O)N(C)C (as salt: hydrochloride) [Example 25, N,N-Dimethyl 3-(4-amino-2-ethoxymethyl-1H-imidazo[4,5-c]quinolin-1-yl)-2,2-dimethylpropane-1-sulfonamide] | 193 to 195
2 | CCc1nc2c(N)nc3ccccc3c2n1CCCCS(N)(=O)=O (as salt: trifluoroacetate) [Example 6, 4-(4-Amino-2-ethyl-1H-imidazo[4,5-c]quinolin-1-yl)butane-1-sulfonamide] | 225 to 227
3 | CCc1nc2c(N)nc3ccccc3c2n1CCCS(=O)(=O)NC [Example 1, N-Methyl 3-(4-amino-2-ethyl-1H-imidazo[4,5-c]quinolin-1-yl)propane-1-sulfonamide] | 225 to 228
4 | CCc1nc2c(N)nc3ccccc3c2n1CCCS(=O)(=O)N(C)C [Example 2, N,N-Dimethyl 3-(4-amino-2-ethyl-1H-imidazo[4,5-c]quinolin-1-yl)propane-1-sulfonamide] | 209 to 211
5 | CCc1nc2c(N)nc3ccccc3c2n1CCCCS(=O)(=O)N(C)C [Example 3, N,N-Dimethyl 4-(4-amino-2-ethyl-1H-imidazo[4,5-c]quinolin-1-yl)butane-1-sulfonamide] | 193 to 195
6 | CCc1nc2c(N)nc3ccccc3c2n1CCCCS(=O)(=O)NC [Example 4, N-Methyl 4-(4-amino-2-ethyl-1H-imidazo[4,5-c]quinolin-1-yl)butane-1-sulfonamide] | 190 to 191
7 | CCc1nc2c(N)nc3ccccc3c2n1CCCCS(=O)(=O)NCc1ccc(OC)cc1 [Example 5, N-(4-Methoxybenzyl) 4-(4-amino-2-ethyl-1H-imidazo[4,5-c]quinolin-1-yl)butane-1-sulfonamide] | 176 to 177
8 | CN(C)S(=O)(=O)CCCn1cnc2c(N)nc3ccccc3c21 [Example 7, N,N-Dimethyl 3-(4-amino-1H-imidazo[4,5-c]quinolin-1-yl)propane-1-sulfonamide] | 155 to 157
9 | CCOCc1nc2c(N)nc3ccccc3c2n1CCCCS(=O)(=O)Nc1ccc(OC)cc1 [Example 8, N-(4-Methoxyphenyl) 4-(4-amino-2-ethoxymethyl-1H-imidazo[4,5-c]quinolin-1-yl)butane-1-sulfonamide] | 229 to 230
10 | CCOCc1nc2c(N)nc3ccccc3c2n1CCCCS(=O)(=O)NC [Example 10, N-Methyl 4-(4-amino-2-ethoxymethyl-1H-imidazo[4,5-c]quinolin-1-yl)butane-1-sulfonamide] | 170 to 172
11 | CCOCc1nc2c(N)nc3ccccc3c2n1CCCCS(=O)(=O)N(C)C [Example 11, N,N-Dimethyl 4-(4-amino-2-ethoxymethyl-1H-imidazo[4,5-c]quinolin-1-yl)butane-1-sulfonamide] | 173 to 174
12 | CCOCc1nc2c(N)nc3ccccc3c2n1CCCCS(=O)(=O)N1CCCCC1 [Example 12, 2-Ethoxymethyl-1-[4-(piperidine-1-sulfonyl)butyl]-1H-imidazo[4,5-c]quinoline-4-amine] | 185 to 188
13 | CCOCc1nc2c(N)nc3ccccc3c2n1CCCCS(=O)(=O)NC1CCCCC1 [Example 13, N-Cyclohexyl 4-(4-amino-2-ethoxymethyl-1H-imidazo[4,5-c]quinolin-1-yl)butane-1-sulfonamide] | 197 to 198
14 | CCCCNS(=O)(=O)CCCCn1c(COCC)nc2c(N)nc3ccccc3c21 [Example 14, N-Butyl 4-(4-amino-2-ethoxymethyl-1H-imidazo[4,5-c]quinolin-1-yl)butane-1-sulfonamide] | 148 to 149
15 | CCOCc1nc2c(N)nc3ccccc3c2n1CCOCCCS(=O)(=O)N(C)C [Example 15, N,N-Dimethyl 3-[2-(4-amino-2-ethoxymethyl-1H-imidazo[4,5-c]quinolin-1-yl)ethoxy]propane-1-sulfonamide] | 61 to 64
16 | CCOCc1nc2c(N)nc3ccccc3c2n1CCCCCS(=O)(=O)NC [Example 16, N-Methyl 5-(4-amino-2-ethoxymethyl-1H-imidazo[4,5-c]quinolin-1-yl)pentane-1-sulfonamide] | 175 to 179
17 | CCOCc1nc2c(N)nc3ccccc3c2n1CCCCCS(=O)(=O)N(C)C [Example 17, N,N-Dimethyl 5-(4-amino-2-ethoxymethyl-1H-imidazo[4,5-c]quinolin-1-yl)pentane-1-sulfonamide] | 138 to 142
18 | CCOCc1nc2c(N)nc3c(c2n1CCCCS(=O)(=O)NC)CCCC3 [Example 18, N-Methyl 4-(4-amino-2-ethoxymethyl-6,7,8,9-tetrahydro-1H-imidazo[4,5-c]quinolin-1-yl)butane-1-sulfonamide] | 188 to 192
19 | CCOCc1nc2c(N)nc3c(c2n1CCCCS(=O)(=O)N(C)C)CCCC3 [Example 19, N,N-Dimethyl 4-(4-amino-2-ethoxymethyl-6,7,8,9-tetrahydro-1H-imidazo[4,5-c]quinolin-1-yl)butane-1-sulfonamide] | 165 to 167
20 | CCOCc1nc2c(N)nc3ccccc3c2n1CCCCS(=O)(=O)NCc1ccc(OC)cc1 [Example 20, N-(4-Methoxybenzyl) 4-(4-amino-2-ethoxymethyl-1H-imidazo[4,5-c]quinolin-1-yl)butane-1-sulfonamide] | 101
21 | CCOCc1nc2c(N)nc3ccccc3c2n1CCCCS(N)(=O)=O [Example 21, 4-(4-Amino-2-ethoxymethyl-1H-imidazo[4,5-c]quinolin-1-yl)butane-1-sulfonamide] | 155 to 158
22 | CCOCc1nc2c(N)nc3ccccc3c2n1CCCCCS(=O)(=O)NCc1ccc(OC)cc1 [Example 22, N-(4-Methoxybenzyl) 5-(4-amino-2-ethoxymethyl-1H-imidazo[4,5-c]quinolin-1-yl)pentane-1-sulfonamide] | 177 to 178
23 | CCOCc1nc2c(N)nc3ccccc3c2n1CCCCCS(N)(=O)=O [Example 23, 5-(4-Amino-2-ethoxymethyl-1H-imidazo[4,5-c]quinolin-1-yl)pentane-1-sulfonamide] | 176 to 178
24 | CCOCc1nc2c(N)nc3c(c2n1CCCCS(N)(=O)=O)CCCC3 [Example 24, 4-(4-Amino-2-ethoxymethyl-6,7,8,9-tetrahydro-1H-imidazo[4,5-c]quinolin-1-yl)butane-1-sulfonamide] | 224 to 227
25 | CCCc1nc2c(N)nc(C)c(C)c2n1CCCCS(=O)(=O)N(C)C [Example 26, N,N-Dimethyl 4-(4-Amino-6,7-dimethyl-2-propyl-1H-imidazo[4,5-c]pyridin-1-yl)butane-1-sulfonamide] | 127 to 128
26 | CCCc1nc2c(N)nc(C)c(C)c2n1CCCCS(=O)(=O)NC [Example 27, N-Methyl 4-(4-Amino-6,7-dimethyl-2-propyl-1H-imidazo[4,5-c]pyridin-1-yl)butane-1-sulfonamide] | 164 to 166
27 | CCOCc1nc2c(N)nc(C)c(C)c2n1CCCCS(=O)(=O)N(C)C [Example 28, N,N-Dimethyl 4-(4-Amino-6,7-dimethyl-2-ethoxymethyl-1H-imidazo[4,5-c]pyridin-1-yl)butane-1-sulfonamide] | 158 to 160
